# Measured values published in patent US20260297131A1, “COMPOSITIONS AND METHODS FOR PEPTIDE-BASED MODULATORS OF HUMAN PAPILLOMAVIRUS ONCOPROTEIN E6” (priority 2023, published 2026).
# Values joined by “and” are separate entries in the source; they are usually repeats but may differ in a detail not shown here. Identical values can stand only once. Square brackets hold non-standard residues; d marks the D form. Peptide text beside a SMILES is read from it. * marks the point of attachment. Acetyl(9-fluorenyl) = O=C(CC1c2ccccc2-c2ccccc21)*; Anthracene1carbonyl = O=C(c1cccc2cc3ccccc3cc12)*; 2Nal = N[C@@H](Cc1ccc2ccccc2c1)C(=O)O; 1Naphthoyl = O=C(c1cccc2ccccc12)*; Ala(cPr) = N[C@@H](CC1CC1)C(=O)O; Hyp = O=C(O)[C@@H]1C[C@@H](O)CN1; hPhe = N[C@@H](CCc1ccccc1)C(=O)O; Gly(cBu) = N[C@H](C(=O)O)C1CCC1; Aad = N[C@@H](CCCC(=O)O)C(=O)O; Cba = N[C@@H](CC1CCC1)C(=O)O; Nva = CCC[C@H](N)C(=O)O; Aib = CC(C)(N)C(=O)O; Dha = C=C(N)C(=O)O
# Legend:
# MBP-16E6 [1] = target: T1, MBP-16E6 (Human papillomavirus 16, UniProt P03126, C104S/C118S/C147S/C87S)
# T1 sequence (P03126 whole entry C104S/C118S/C147S/C87S, looked up): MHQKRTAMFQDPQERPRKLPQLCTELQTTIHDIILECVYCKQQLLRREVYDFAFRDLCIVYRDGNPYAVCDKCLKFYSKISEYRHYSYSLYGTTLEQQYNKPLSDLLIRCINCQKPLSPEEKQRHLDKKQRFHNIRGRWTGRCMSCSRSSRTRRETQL
# MBP-16E6 [2] = target: T1, MBP-16E6; experiment: biochemical
# [3] = KD, nM, TABLE 2B, BLI competition
compound,measurement,setting,value
CC[C@H](C)[C@H](NC(=O)CC1c2ccccc2-c2ccccc21)C(=O)N1CCC[C@H]1C(=O)N[C@@H](CCC(=O)O)C(=O)N[C@@H](CO)C(=O)N[C@@H](C)C(=O)N[C@@H](CCC(=O)O)C(=O)N[C@@H](CC(C)C)C(=O)N[C@H](C(=O)N[C@@H](C)C(=O)N[C@@H](CCC(N)=O)C(=O)N[C@@H](CCC(=O)O)C(=O)N[C@@H](C)C(=O)N[C@@H](C)C(=O)NCC(=O)N[C@@H](CCC(=O)O)C(=O)N[C@@H](CCC(=O)O)C(=O)N[C@@H](CCCNC(=N)N)C(=O)N[C@@H](CCCNC(=N)N)C(=O)N[C@@H](C)C(=O)N[C@@H](C)C(=O)N[C@@H](CCCCNC(=O)c1cccc2cc3ccccc3cc12)C(N)=O)[C@@H](C)O [6′-3L3A] ({Acetyl(9-fluorenyl)}-IPESAELTAQEAAGEERRAAK(Anthracene1carbonyl)-NH2),"KD, nM","MBP-16E6 [1]; TABLE 2B, BLI competition",n.b.
CC[C@H](C)[C@H](NC(=O)CC1c2ccccc2-c2ccccc21)C(=O)N1CCC[C@H]1C(=O)N[C@@H](CCC(=O)O)C(=O)N[C@@H](CO)C(=O)N[C@@H](CO)C(=O)N[C@@H](CCC(=O)O)C(=O)N[C@@H](CC(C)C)C(=O)N[C@H](C(=O)N[C@@H](CC(C)C)C(=O)N[C@@H](CCC(N)=O)C(=O)N[C@@H](CCC(=O)O)C(=O)N[C@@H](CC(C)C)C(=O)N[C@@H](CC(C)C)C(=O)NCC(=O)N[C@@H](CCC(=O)O)C(=O)N[C@@H](CCC(=O)O)C(=O)N[C@@H](CCCNC(=N)N)C(=O)N[C@@H](CCCNC(=N)N)C(=O)N[C@@H](C)C(=O)N[C@@H](C)C(=O)N[C@@H](CCCCNC(=O)CC1c2ccccc2-c2ccccc21)C(N)=O)[C@@H](C)O [Entry 2] ({Acetyl(9-fluorenyl)}-IPESSELTLQELLGEERRAAK(Acetyl(9-fluorenyl))-NH2),Kd,MBP-16E6 [2]; [3],8.6 ± 3.2 nM
CC[C@H](C)[C@H](NC(=O)CC1c2ccccc2-c2ccccc21)C(=O)N1CCC[C@H]1C(=O)N[C@@H](CCC(=O)O)C(=O)N[C@@H](CO)C(=O)N[C@@H](CO)C(=O)N[C@@H](CCC(=O)O)C(=O)N[C@@H](CC(C)C)C(=O)N[C@H](C(=O)N[C@@H](CC(C)C)C(=O)N[C@@H](CCC(N)=O)C(=O)N[C@@H](CCC(=O)O)C(=O)N[C@@H](CC(C)C)C(=O)N[C@@H](CC(C)C)C(=O)NCC(=O)N[C@@H](CCC(=O)O)C(=O)N[C@@H](CCC(=O)O)C(=O)N[C@@H](CCCNC(=N)N)C(=O)N[C@@H](CCCNC(=N)N)C(=O)N[C@@H](C)C(=O)N[C@@H](C)C(=O)N[C@@H](CCCCNC(=O)c1cccc2ccccc12)C(N)=O)[C@@H](C)O [Entry 4] ({Acetyl(9-fluorenyl)}-IPESSELTLQELLGEERRAAK(1Naphthoyl)-NH2),Kd,MBP-16E6 [2]; [3],47 ± 7.4 nM
CC[C@H](C)[C@H](NC(=O)CC1c2ccccc2-c2ccccc21)C(=O)N1CCC[C@H]1C(=O)N[C@@H](CCC(=O)O)C(=O)N[C@@H](CO)C(=O)N[C@@H](CO)C(=O)N[C@@H](CCC(=O)O)C(=O)N[C@@H](CC(C)C)C(=O)N[C@H](C(=O)N[C@@H](CC(C)C)C(=O)N[C@@H](CCC(N)=O)C(=O)N[C@@H](CCC(=O)O)C(=O)N[C@@H](CC(C)C)C(=O)N[C@@H](CC(C)C)C(=O)NCC(=O)N[C@@H](CCC(=O)O)C(=O)N[C@@H](CCC(=O)O)C(=O)N[C@@H](CCCNC(=N)N)C(=O)N[C@@H](CCCNC(=N)N)C(=O)N[C@@H](C)C(=O)N[C@@H](C)C(=O)N[C@@H](CCCCNC(=O)c1cccc2cc3ccccc3cc12)C(N)=O)[C@@H](C)O [Entry 6] ({Acetyl(9-fluorenyl)}-IPESSELTLQELLGEERRAAK(Anthracene1carbonyl)-NH2),Kd,MBP-16E6 [2]; [3],3.7 ± 1.9 nM
CC[C@H](C)[C@H](N)C(=O)N1CCC[C@H]1C(=O)N[C@@H](CCC(=O)O)C(=O)N[C@@H](CO)C(=O)N[C@@H](CO)C(=O)N[C@@H](CCC(=O)O)C(=O)N[C@@H](CC(C)C)C(=O)N[C@H](C(=O)N[C@@H](CC(C)C)C(=O)N[C@@H](CCC(N)=O)C(=O)N[C@@H](CCC(=O)O)C(=O)N[C@@H](CC(C)C)C(=O)N[C@@H](CC(C)C)C(=O)NCC(=O)N[C@@H](CCC(=O)O)C(=O)N[C@@H](CCC(=O)O)C(=O)N[C@@H](CCCNC(=N)N)C(=O)N[C@@H](CCCNC(=N)N)C(N)=O)[C@@H](C)O [Peptide 1],Kd,MBP-16E6 [2]; [3],2450 ± 513 nM
same,Kd,"MBP-16E6 [2]; competition KD, BLI competition with 1-biotin, 30 nM MBP-16E6",2300 nM and 2400 nM
C=C(NC(=O)[C@H](C)NC(=O)[C@H](C)NC(=O)[C@H](CCC(=O)O)NC(=O)[C@H](CCC(N)=O)NC(=O)[C@H](C)NC(=O)[C@@H](NC(=O)[C@H](CC(C)C)NC(=O)[C@H](CCC(=O)O)NC(=O)[C@H](C)NC(=O)[C@H](CO)NC(=O)[C@H](CCC(N)=O)NC(=O)[C@@H]1CCCN1C(=O)[C@@H](NC(=O)CC1c2ccccc2-c2ccccc21)[C@@H](C)CC)[C@@H](C)O)C(=O)N[C@@H](CCCNC(=N)N)C(=O)N[C@@H](CCCNC(=N)N)C(=O)N[C@@H](CCCCN)C(=O)N[C@@H](CCCCN)C(=O)N[C@@H](CCCCNC(=O)c1cccc2cc3ccccc3cc12)C(N)=O [Peptide 13-3L3A] ({Acetyl(9-fluorenyl)}-IPQSAELTAQEAA[Dha]RRKKK(Anthracene1carbonyl)-NH2),KD in nM,"MBP-16E6 [1]; TABLE 2C, BLI competition",n.b.
same,Apparent Ki in nM,"MBP-16E6 [1]; TABLE 2E, competition with immobilized 1-Biotin following 30 min incubation with 16E6",n.b.
CC[C@H](C)[C@H](NC(=O)C1CCc2ccccc21)C(=O)N1CCC[C@H]1C(=O)N[C@@H](CCC(=O)O)C(=O)N[C@@H](CO)C(=O)N[C@@H](CO)C(=O)N[C@@H](CCC(=O)O)C(=O)N[C@@H](CC(C)C)C(=O)N[C@H](C(=O)N[C@@H](CC(C)C)C(=O)N[C@@H](CCC(N)=O)C(=O)N[C@@H](CCC(=O)O)C(=O)N[C@@H](CC(C)C)C(=O)N[C@@H](CC(C)C)C(=O)NCC(=O)N[C@@H](CCC(=O)O)C(=O)N[C@@H](CCC(=O)O)C(=O)N[C@@H](CCCNC(=N)N)C(=O)N[C@@H](CCCNC(=N)N)C(N)=O)[C@@H](C)O (some centres unmarked) [Peptide N3],decrease in binding by change of terminal group,MBP-16E6 [1]; relative to fluorene-modified N1 / parent modification,~ 42 fold
C=C(NC(=O)[C@H](CCC)NC(=O)[C@H](CC1CCC1)NC(=O)[C@H](CCC(=O)O)NC(=O)CNC(=O)[C@H](CCC)NC(=O)[C@@H]1C[C@@H](O)CN1C(=O)[C@H](CCC)NC(=O)[C@@H](N)CCCC(=O)O)C(=O)N[C@@H](CCC(=O)O)C(=O)N[C@@H](CCC(=O)O)C(=O)N[C@@H](CCCNC(=N)N)C(N)=O [peptide 3] (H-[Aad][Nva][Hyp][Nva]GE[Cba][Nva][Dha]EER-NH2),Ki,MBP-16E6 [2],466 nM
CC[C@H](C)[C@H](NC(=O)CC1c2ccccc2-c2ccccc21)C(=O)N1CCC[C@H]1C(=O)N[C@@H](CCC(=O)O)C(=O)N[C@@H](CO)C(=O)N[C@@H](C)C(=O)N[C@@H](CCC(=O)O)C(=O)N[C@@H](CC(C)C)C(=O)N[C@H](C(=O)N[C@@H](CC(C)C)C(=O)N[C@@H](CCC(N)=O)C(=O)N[C@@H](CCC(=O)O)C(=O)N[C@@H](CC(C)C)C(=O)N[C@@H](CC(C)C)C(=O)NCC(=O)N[C@@H](CCC(=O)O)C(=O)N[C@@H](CCC(=O)O)C(=O)N[C@@H](CCCNC(=N)N)C(=O)N[C@@H](CCCNC(=N)N)C(=O)N[C@@H](C)C(=O)N[C@@H](C)C(=O)N[C@@H](CCCCNC(=O)c1cccc2cc3ccccc3cc12)C(N)=O)[C@@H](C)O [peptide 6′] ({Acetyl(9-fluorenyl)}-IPESAELTLQELLGEERRAAK(Anthracene1carbonyl)-NH2),Kd,"MBP-16E6 [2]; KD in nM, TABLE 2C, BLI competition",1.4 ± 0.6 nM
same,Kd,MBP-16E6 [2]; [3],2.7 ± 1.2 nM
same,Kd,"MBP-16E6 [2]; competition KD, BLI competition, values in text",2.7 nM
C=C(NC(=O)[C@H](CC1CC1)NC(=O)[C@H](CCc1ccccc1)NC(=O)[C@H](CCC(=O)O)NC(=O)C(C)(C)NC(=O)[C@H](CC1CC1)NC(=O)[C@@H](NC(=O)[C@H](Cc1ccc2ccccc2c1)NC(=O)[C@@H](N)CCCC(=O)O)C1CCC1)C(=O)N[C@@H](CCC(=O)O)C(=O)N[C@@H](CCC(=O)O)C(=O)N[C@@H](CCCNC(=N)N)C(N)=O [peptide 14] (H-[Aad][2Nal][Gly(cBu)][Ala(cPr)][Aib]E[hPhe][Ala(cPr)][Dha]EER-NH2),lower binding affinity compared to peptide 18,MBP-16E6 [1]; substitution Leu8Hof,2 fold
